Results from US20240197681A1, “METHODS AND COMPOSITIONS RELATING TO PS[…] SEROTONIN RECEPTOR MODULATORS” (Terran Biosciences Inc., priority 2021, published 2024).
“Also recorded” adds a separate entry of the source. Like-named read-outs stand apart in the source and are kept apart here.

Experiments:
[1] = test system: hippocampal area CA1 in anesthetized mice; assay: In vivo electrophysiology: local field potentials in hippocampal CA1; details: for effect of ketanserin pretreatment on psilocybin-induced reduction in low frequency (delta) LFP power: ketanserin 2 mg/kg i.p. 60 minutes before psilocybin 10 mg/kg i.p., 15-25 minutes following psilocybin injection
Healthy Volunteers [2] = details: cited from earlier work; for subjective (psychotomimetic) LSD effects versus placebo at 360 minutes: 5D-ASC short version
C57Bl/6J mice [3] = assay: Locomotion in open field arena; details: ketanserin 2 mg/kg 60 minutes prior to psilocybin 5 mg/kg
TA-CA1 synapses = assay: In vitro electrophysiology: AMPA:NMDA ratios of TA-CA1 fEPSPs in hippocampal slices from treated mice; type: in vivo; details: ketanserin 2 mg/kg 60 minutes prior to psilocybin 1 mg/kg; CMMS mice
Experimental: Standard methods were used to prepare […] hippocampal slices. Briefly, mice were euthanized via exposure to isoflurane followed by decapitation. Brains were excised and the hippocampus was quickly dissected from the brain and sectioned on a Leica VT1200 series vibratome in ice-cold artificial cerebrospinal fluid (ACSF) bubbled with 95% O2/5% CO2. The ACSF contained: 124 mM NaCl, 3 mM KCl, 1.25 mM NaH2PO4, 1.5 mM MgSO4, 2.5 mM CaCl2, 26 mM NaHCO3, and 10 mM glucose. Slices were allowed to recover for a minimum of 60 minutes at room temperature in ACSF in a humidified interface chamber before recording.
Use of extracellular recording, rather than whole-cell recording, was chosen for quantification of AMPA:NMDA ratios because of the complications of stress-induced changes in dendritic structure and their electrotonic influence on recordings of distal TA-CAI synapses. For quantification of AMPA:NMDA ratios, ACSF was prepared as stated, but without MgSO4, to leave NMDA channels unblocked. […] Five fEPSPs were again collected at the same stimulation intensities recorded prior to DNQX. […]
AMPA:NMDA ratios of the TA-CAI fEPSPs were quantified as described previously (A. J. Kallarackal et al., 2013 J. Neuroscience. 33, 15669-15764) in order to provide a measure of synaptic strength across slices from different mice. […]

5-HT2A receptor = molecular target: T1, 5-HT2A receptor (Mus musculus, UniProt P35363); assay: Head twitch response (HTR); type: in vivo, mice; details: ketanserin 2 mg/kg 60 minutes prior to psilocybin 1 mg/kg, 15 minutes following injection
T1 construct: from tissue; host or cells: live mice (whole animal, brain receptors)
T1 sequence (P35363 whole entry): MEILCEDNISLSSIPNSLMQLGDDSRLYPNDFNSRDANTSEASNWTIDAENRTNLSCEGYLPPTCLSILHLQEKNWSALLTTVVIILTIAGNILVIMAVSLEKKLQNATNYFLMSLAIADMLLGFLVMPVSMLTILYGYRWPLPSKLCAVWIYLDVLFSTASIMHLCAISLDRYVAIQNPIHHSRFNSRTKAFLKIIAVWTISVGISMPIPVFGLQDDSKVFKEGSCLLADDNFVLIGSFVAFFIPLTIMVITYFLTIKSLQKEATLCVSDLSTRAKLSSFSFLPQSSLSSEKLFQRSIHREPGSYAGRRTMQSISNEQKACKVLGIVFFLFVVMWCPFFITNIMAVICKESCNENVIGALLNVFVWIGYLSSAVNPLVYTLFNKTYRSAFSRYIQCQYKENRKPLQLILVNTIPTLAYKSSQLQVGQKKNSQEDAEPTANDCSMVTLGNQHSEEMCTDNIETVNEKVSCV

Healthy Volunteers [4] = assay: Resting-state fMRI: global brain connectivity (GBC) and functional connectivity (FC); type: in vivo, humans; details: ketanserin 60 minutes before LSD; for LSD induced neural changes at 300 minutes in the presence of ketanserin: absence of psychotomimetic effects
Source text: The used dataset was acquired in the course of a registered clinical trial (ClinicalTrials.gov Identifier: NCT02451072) entitled: The Role of 5-HT2A Receptor in the Perception of Self and Personal Meaning in Healthy Volunteers. Participants, study design, neuroimaging data acquisition, preprocessing and global brain connectivity calculation are detailed in Preller et al. (eLife. 2018 Oct. 25; 7:e35082. Changes in global and thalamic brain connectivity in LSD-induced altered states of consciousness are attributable to the 5-HT2A receptor, PMID: 30355445). The relevant methodological sections pertinent to the current analysis are summarized below.
24 subjects were included in the dataset (n=19 males; mean age=25.0 years, standard deviation=3.6 years, range=20-34 years). All included subjects were healthy, as confirmed by medical history, physical examination, blood analysis, electrocardiogra Mini-International Neuropsychiatric Interview (MINI-SCID) [Sheehan et al., 1998], the DSM-IV self-rating questionnaire for Axis-II personality disorders (SCIS-II) [Fydrich et al., 1997], and the Hopkins Symptom Checklist (SCL-90R) [Franke, 1995]. Subjects were required to abstain from prescription or illicit drugs, alcohol, smoking and caffeine.
The study was designed as a fully double-blind, randomized, within-subject cross-over study. During a session, subjects were pretreated with either a placebo or the 5-HT2A receptor antagonist Ketanserin 60 minutes before being treated with either a placebo or LSD. Thus, each subject participated in 3 sessions in which they underwent each of the following pretreatment · treatment conditions in a randomized, balanced order: • a) Placebo+placebo • b) Placebo+LSD • c) Ketanserin+LSD Two resting-state scans were performed, one 75 and the other 300 minutes after treatment. To assess participants' experience, a retrospective self-report questionnaire (5D-ASC, [Dittrich, 1998]) was administered 720 minutes after treatment, and a shorter version of the 5D-ASC 180, 250 and 360 minutes after treatment. […]

C57Bl/6J mice [5] = assay: Female urine sniff test (FUST) after chronic multimodal stress (CMMS); type: in vivo; details: stress-susceptible male mice after 10-14 days CMMS; single drug (psilocybin 1 mg/kg i.p. or ketanserin 2 mg/kg i.p.) plus vehicle injection; 24-48 hours after injection
C57Bl/6J mice [6] = assay: Sucrose preference test (SPT) after chronic multimodal stress (CMMS); type: in vivo; details: stress-susceptible male mice after 10-14 days CMMS; single drug (psilocybin 1 mg/kg i.p. or ketanserin 2 mg/kg i.p.) plus vehicle injection; 24-48 hours after injection

Row | SMILES | time of peak effect on low frequency LFP activity following psilocybin injection ([1]; psilocybin 10 mg/kg) | duration of decrease of delta band power ([1]; psilocybin 10 mg/kg, i.p.) | time to decrease of delta band power ([1]; psilocybin 10 mg/kg, i.p.) | effect of ketanserin pretreatment on psilocybin-induced reduction in low frequency (delta) LFP power [1] | effect of ketanserin pretreatment on psilocybin-induced reduction in low frequency (delta) LFP power ([1]; listed as Ketanserin) | effect of ketanserin pretreatment on psychotomimetic (behavioral) effects of LSD (Healthy Volunteers [2]; ketanserin 60 minutes before LSD, all timepoints) | effect of ketanserin pretreatment on locomotion (C57Bl/6J mice [3]) | effect of ketanserin pretreatment on the ability of psilocybin to restore AMPA:NMDA ratios (TA-CA1 synapses) | effect of ketanserin pretreatment on psilocybin-induced head-twitching (5-HT2A receptor activation) (5-HT2A receptor) | effect of ketanserin pretreatment on psilocybin-induced head-twitching (5-HT2A receptor activation) (5-HT2A receptor; listed as Ketanserin) | effect of ketanserin pretreatment on LSD-induced neural changes at 75 minutes (Healthy Volunteers [4]) | LSD induced neural changes at 300 minutes in the presence of ketanserin (Healthy Volunteers [4]) | female urine preference compared to values after CMMS (C57Bl/6J mice [5]) | sucrose preference (SP) compared to values after CMMS (C57Bl/6J mice [6]) | subjective (psychotomimetic) LSD effects versus placebo at 360 minutes (Healthy Volunteers [2]; FIG. 20 reprinted from Preller 2018) | subjective (psychotomimetic) LSD effects versus placebo at 360 minutes (Healthy Volunteers [2]; FIG. 20 reprinted from Preller 2018, listed as Pla+LSD) | self-reported altered states of consciousness (5D-ASC short version) (Healthy Volunteers [2]; 180, 250 and 360 minutes after second drug administration, FIG. 20 reprinted from Preller 2018)
1 | CN(C)CCc1c[nH]c2cccc(OP(=O)(O)O)c12 [psilocybin] | 15 to 25 min | > 60 min | ≤ 15 min | – | – | – | – | – | – | – | – | – | – | – | – | – | –
2 | O=C(c1ccc(F)cc1)C1CCN(CCn2c(=O)[nH]c3ccccc3c2=O)CC1 [ketanserin] | – | – | – | inhibited; also recorded: significantly attenuated | greatly attenuated; also recorded: block | blocked all of the psychotomimetic effects of LSD; also recorded: fully blocked the behavioral effects of LSD | enhances hypolocomotive effects of psilocybin; also recorded: induced hypo-locomotion | did not impair | prevents head-twitching; also recorded: sufficiently blocked 5-HT2A receptors; also recorded: sufficiently attenuated the activation of 5-HT2ARs | block 5-HT2AR-dependent head twitching | many of the immediate neural changes induced by LSD at 75 minutes | did not block the neural changes induced by LSD | nor ketanserin alone (p=0.072) had a significant effect on female urine preference; also recorded: no significant effect | nor ketanserin alone (p=0.87; n=6) had a significant effect on SP; also recorded: no significant effect | – | – | –
3 | CCN(CC)C(=O)[C@@H]1C=C2c3cccc4[nH]cc(c34)C[C@H]2N(C)C1 [LSD, lysergic acid diethylamide] | – | – | – | – | – | – | – | – | – | – | – | reached near full effect within 300 minutes | – | – | still intense and high above placebo | still significantly elevated from placebo | substantial self-reported altered states of consciousness
